Laboratory results: patent US20250092065A1, “2-(INDAZOL-5-YL)-6-(PIPERIDIN-4-YL)-1,7-NAPHTHYRIDINE DERIVATIVES AND RELATED COMPOUNDS AS MODULATORS FOR SPLICING NUCLEIC ACIDS AND FOR THE TREATMENT OF PROLIFERATIVE DISEASES” (REMIX THERAPEUTICS INC., priority 2022, published 2025)
Where two headings read alike, the source gives them in different places.

What was measured:
[1] = test system: HTT mRNA; test: RT-qPCR splicing assay, HTT mRNA canonical (CJ) and alternative (AJ) junction; format: cell-based, human
Description: (§1) Compounds described herein were used to modulate RNA transcript abundance in cells. The expression of a target mRNA was measured by detecting the formation of an exon-exon junction in the canonical transcript (CJ). A compound mediated exon-inclusion event was detected by observing an increase in formation of a new junction with an alternative exon (AJ). Real-time qPCR assays were used to detect these splicing switches and interrogate the potency of various compounds towards different target genes. A high-throughput real time quantitative PCR (RT-qPCR) assay was developed to measure these two isoforms of the mRNA (CJ and AJ) for exemplary genes, such as HTT, SMN2, and MYB, together with a control housekeeping gene, GAPDH or GUSB or PPIA, used for normalization. Briefly, the A673 or K562 cell line was treated with various compounds described herein (e.g., compounds of Formula (I)). After treatment, the levels of the HTT, MYB, or SMN2 mRNA targets were determined from each sample of cell lysate by cDNA synthesis followed by qPCR.
(§2) The A673 cell line was cultured in DMEM with 10% FBS. Cells were diluted with full growth media and plated in a 96-well plate (15,000 cells in 100 ul media per well). The plate was incubated at 37° C. with 5% CO2 for 24 hours to allow cells to adhere. An 11-point 3-fold serial dilution of the compounds was made in DMSO then diluted in media in an intermediate plate. Compounds were transferred from the intermediate plate to the cell plate with the top dose at a final concentration of 10 uM in the well. Final DMSO concentration was kept at or below 0.25%. The cell plate was returned to the incubator at 37° C. with 5% CO2 for an additional 24 hours.
(§3) The K562 cell line was cultured in IMDM with 10% FBS. For K562, cells were diluted with full growth media and plated in either a 96-well plate (50,000 cells in 50 uL media per well) or a 384-well plate (8,000-40,000 cells in 45 uL media per well). An 11-point 3-fold serial dilution of the compounds were made in DMSO then diluted in media in an intermediate plate. Compound was transferred from the intermediate plate to the cell plate with the top dose at a final concentration of 10 uM in the well. Final DMSO concentration was kept at or below 0.25%. Final volume was 100 uL for 96-well plate and 50 uL for 384-well plate. The cell plate was then placed in an incubator at 37° C. with 5% CO2 for 24 hours.
(§4) The cells were then gently washed with 50 uL-100 uL cold PBS before proceeding to addition of lysis buffer. 30 uL-50 μL of room temperature lysis buffer with DNAse I (and optionally RNAsin) was added to each well. Cells were shaken/mixed thoroughly at room temperature for 5-10 minutes for lysis to take place and then 3 uL-5 μL of room temperature stop solution was added and wells were shaken/mixed again. After 2-5 minutes, the cell lysate plate was transferred to ice for RT-qPCR reaction setup. The lysates could also be frozen at −80° C. for later use.
(§5) In some cases, a direct lysis buffer was used. An appropriate volume of 3× lysis buffer (10 mM Tris, 150 mM NaCl, 1.5%-2.5% Igepal and 0.1-1 U/uL RNAsin, pH 7.4) was directly added to either K562 or A673 cells in media and mixed by pipetting 3 times. The plates were then incubated at room temperature with shaking/rocking for 20-50 minutes to allow for lysis to take place. After this time, the cell lysate plate was transferred to ice to set up for the RT-qPCR reactions. The lysates could also be frozen at −80° C. for later use.
(§6) To set up 10 uL RT-qPCR reactions, cell lysates were transferred to 384-well qPCR plates containing the master mix according to the table below. The plates were sealed, gently vortexed, and spun down before the run. The volumes were adjusted accordingly in some instances where the reaction was carried in 20 μL. The table below summarizes the components of the RT-qPCR reactions:
(§7) The RT-qPCR reaction was performed using a QuantStudio (ThermoFisher) under the following fast cycling conditions. […]

[2] = test system: MYB mRNA; test: RT-qPCR splicing assay, MYB mRNA canonical (CJ) and alternative (AJ) junction; format: cell-based, human
Description: as §1, §2, §3, §4, §5, §6, §7

[3] = test system: SMN2 mRNA; test: RT-qPCR splicing assay, SMN2 mRNA; format: cell-based, human; conditions: canonical junction qPCR panel, Table 4, read-out: SMN2 IC50 (decrease in CJ mRNA levels)
Description: as §1, §2, §3, §4, §5, §6, §7

[4] = test system: K562 cells; test: Cell Titer Glo 2.0 cell viability (toxicity) assay, K562; conditions: 500 cells/well, 72 hours
[5] = Homo sapiens, RT-qPCR, HTT alternative junction mRNA increase, read-out: HTT AJ (increase in alternative junction mRNA, AC50)
[6] = Homo sapiens, RT-qPCR, HTT canonical junction mRNA decrease, read-out: HTT CJ (decrease in canonical junction mRNA, IC50)
[7] = Homo sapiens, canonical junction qPCR panel, Table 4, read-out: HTT IC50 (decrease in CJ mRNA levels)
[8] = Homo sapiens, RT-qPCR, MYB alternative junction mRNA increase, read-out: MYB AJ (increase in alternative junction mRNA, AC50)
[9] = Homo sapiens, RT-qPCR, MYB canonical junction mRNA decrease, read-out: MYB CJ (decrease in canonical junction mRNA, IC50)
[10] = Homo sapiens, canonical junction qPCR panel, Table 4, read-out: MYB IC50 (decrease in CJ mRNA levels)

| SMILES | AC50 [1, 5] [nM] | IC50 [1, 6] [nM] | IC50 [1, 7] [nM] | AC50 [2, 8] [nM] | IC50 [2, 9] [nM] | IC50 [2, 10] [nM] | IC50 ([3]; Homo sapiens) [nM] | Effect of Exemplary Compounds on Cell Viability, K562 [4] | AC50 ([1]; Homo sapiens, HTT alternative junction mRNA, RT-qPCR, read-out: HTT AJ (increase in AJ mRNA, AC50)) [nM] | IC50 ([1]; Homo sapiens, HTT canonical junction mRNA, RT-qPCR, read-out: HTT CJ (decrease in CJ mRNA levels, IC50)) [nM] | AC50 ([2]; Homo sapiens, MYB alternative junction mRNA, RT-qPCR, read-out: MYB AJ (increase in AJ mRNA, AC50)) [nM] | IC50 ([2]; Homo sapiens, MYB canonical junction mRNA, RT-qPCR, read-out: MYB CJ (decrease in CJ mRNA levels, IC50)) [nM] | AC50 ([1]; HTT alternative junction mRNA, RT-qPCR, read-out: HTT AJ (increase in AJ mRNA, AC50)) [nM] | IC50 ([1]; HTT canonical junction mRNA, RT-qPCR, read-out: HTT CJ (decrease in CJ mRNA levels, IC50)) [nM] | IC50 ([1]; canonical junction qPCR panel, Table 4, read-out: HTT IC50 (decrease in CJ mRNA levels)) [nM] | AC50 ([2]; MYB alternative junction mRNA, RT-qPCR, read-out: MYB AJ (increase in AJ mRNA, AC50)) [nM] | IC50 ([2]; MYB canonical junction mRNA, RT-qPCR, read-out: MYB CJ (decrease in CJ mRNA levels, IC50)) [nM] | IC50 ([2]; canonical junction qPCR panel, Table 4, read-out: MYB IC50 (decrease in CJ mRNA levels)) [nM] | IC50 [3] [nM] |
| --- | --- | --- | --- | --- | --- | --- | --- | --- | --- | --- | --- | --- | --- | --- | --- | --- | --- | --- | --- |
| C[C@H]1CN(c2ccc3nc(-c4cc(F)c5nc(CO)cn5c4)ncc3c2)C[C@H](C)N1 (single isomer, unassigned) [Compound 828] | 1000 to 10000 | 100 to 1000 | 100 to 1000 | < 100 | < 100 | < 100 | < 100 | B (B represents 100-1000 nM) | – | – | – | – | – | – | – | – | – | – | – |
| Cn1cc2cc(-c3ccc4nc(N5CCN6CCCC6C5)ccc4n3)c(O)cc2n1 (stereo not shown) [Compound 134] | – | – | 1000 to 10000 | – | – | 100 to 1000 | < 100 | C (C represents 1000-9999 nM) | 1000 to 10000 | 1000 to 10000 | 100 to 1000 | 100 to 1000 | – | – | – | – | – | – | – |
| Cc1c(O)c(-c2ccc3nc(N4CCC(NC(C)(C)C)C4)ccc3n2)cc2cn(C)nc12 (stereo not shown) [Compound 275] | – | – | – | – | – | – | – | – | – | – | – | – | < 100 | < 100 | < 100 | < 100 | < 100 | < 100 | < 100 |
| Cc1cn2cc(-c3ncc4cc(N5C[C@H](C)N[C@@H](C)C5)ccc4n3)ccc2n1 [Compound 827] | 1000 to 10000 | 1000 to 10000 | 1000 to 10000 | 100 to 1000 | 100 to 1000 | 100 to 1000 | < 100 | B (B represents 100-1000 nM) | – | – | – | – | – | – | – | – | – | – | – |
| C[C@H]1CN(c2ccc3nc(-c4cc(F)c5nc(CF)cn5c4)ncc3c2)C[C@H](C)N1 [Compound 829, 6-[(3S,5S)-3,5-dimethylpiperazin-1-yl]-2-[8-fluoro-2-(fluoromethyl)imidazo[1,2-a]pyridin-6-yl]quinazoline] | 100 to 1000 | 100 to 1000 | 100 to 1000 | 100 to 1000 | < 100 | < 100 | < 100 | B (B represents 100-1000 nM) | – | – | – | – | – | – | – | – | – | – | – |
| COc1cc(-c2ncc3cc(N4C[C@@H](C)N[C@@H](C)C4)ccc3n2)cn2cc(C)nc12 [Compound 830] | > 10000 | 1000 to 10000 | 1000 to 10000 | 100 to 1000 | 100 to 1000 | 100 to 1000 | < 100 | B (B represents 100-1000 nM) | – | – | – | – | – | – | – | – | – | – | – |
| Cc1cn2cc(-c3ncc4cc(N5C[C@@H](C)N[C@@H](C)C5)ccc4n3)cc(C#N)c2n1 [Compound 831] | 1000 to 10000 | 100 to 1000 | 100 to 1000 | < 100 | < 100 | < 100 | < 100 | B (B represents 100-1000 nM) | – | – | – | – | – | – | – | – | – | – | – |
